Measured values taken from US10961219B2, “Derivatives and their use as selective inhibitors of caspase-2” (priority 2016, dated 2021).
Residues, ends and D or L forms follow the SMILES beside them. *: point of attachment. X1 = O=C(O)C[C@H](N*)C(=O)COc1c(F)cccc1F; Quinaldoyl = O=C(c1ccc2ccccc2n1)*

Assays:
Caspase-2 = molecular target: T1, Caspase-2 (Homo sapiens, UniProt P42575); experiment: Caspase-2 inhibition assay (in vitro), kinact/KI by continuous method; assay type: biochemical; settings: for kinact/KI: human recombinant Caspase-2 0.1 nM, substrate Ac-VDVAD-AMC, 37° C., read-out: Inactivation constant kinact/KI Caspase-2 (converted); for times more efficient to inactivate Caspase-2 than to inactivate Caspase-3 (selectivity): ratio of kinact/KI Caspase-2 versus Caspase-3
T1 construct: the Caspase-2 and Caspase-3 are human recombinant active enzymes; purchased Enzo Life ALX-201-057-U100
T1 sequence (P42575 170-325 limits assumed): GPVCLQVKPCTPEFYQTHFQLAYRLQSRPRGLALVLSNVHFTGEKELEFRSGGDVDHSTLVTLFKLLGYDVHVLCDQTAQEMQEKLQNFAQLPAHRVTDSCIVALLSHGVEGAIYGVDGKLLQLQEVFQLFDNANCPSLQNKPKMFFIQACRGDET
T1 sequence (P42575 348-452 limits assumed): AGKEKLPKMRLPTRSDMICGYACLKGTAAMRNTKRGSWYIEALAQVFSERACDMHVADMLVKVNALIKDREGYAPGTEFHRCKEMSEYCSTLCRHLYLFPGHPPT
Source text: (§1) The efficiency of the compound 2 of the invention to inhibit Caspase-2 and Caspase-3 has been evaluated by using the below explained protocol.
(§2) The efficiency of the comparative compound Δ2Me-TRP601, that is an already known group II Caspase inhibitor (inhibitor of Caspase-2, Caspase-3 and Caspase-7), has been assessed by a similar protocol described in Chauvier et al., 2011 Cell Death Dis 2011, 2:e203.
In this example, the Caspase-2 and Caspase-3 are human recombinant active enzymes that are respectively provided by Enzo Life® (ALX-201-057-U100) and R&D Systems® (707-C3-010/CF).
Caspase-2 is used at a final concentration of 0.1 nM in a “Caspase-2 buffer” containing 20 mM HEPES (pH 7.4), 5 mM DTT, 2 mM EDTA, 0.1% CHAPS and 800 mM succinate. Caspase-3 is used at a final concentration of 0.5 nM in a “Caspase-3 buffer” containing 20 mM HEPES (pH 7.4), 0.1% CHAPS, 5 mM DTT, and 2 mM EDTA.
(§3) The peptide substrates used for the enzymatic activity measurements are Ac-DEVD-AMC and Ac-VDVAD-AMC commercialized by EnzoLife® (respectively referenced ALX-260-031-M005 and ALX-260-060-M005). They are fluorogenic due to the presence of their AMC (7-amino-4-methylcoumarin) end group. The releasing of AMC enables to follow the enzymatic activity in fluorescence unit RFU over time in a 96-wells microplate (COSTAR 3915).
The fluorescence values are measured at 37° C. with a spectrofluorometer with a microplate reader BMG FLUOstar OPTIMA. This apparatus is driven by the software Biolise® and is equipped with thermoelectric cooling device by Peltier effect. The mathematic analysis of the experimental data are done with the software Kaleidagraph@.
The inhibitory properties of the tested compounds are evaluated by the determination of the kinact/KI ratio regarding either Caspase-2 or Caspase-3 wherein: • kinact is the maximal inactivation rate constant, and • KI is the dissociation constant according to:
Said ratio is measured according to the continuous method (Allison R D. Curr Protoc Protein Sci. 2001 May; Chapter 3:Unit 3.5.; Chauvier et al., 2011 Cell Death Dis 2:e203; Tan et al., J Med Chem 2015, […]).
Briefly, Caspases activities were determined by monitoring the hydrolysis of fluorogenic substrates (λexc=355 nm, λem=460 nm) as a function of time, in the presence of untreated Caspases (control) or Caspases that had been incubated with a test compound, for 30 min minimum at 37° C. using a BMG Fluostar microplate reader (black 96-well microplates) and the initial velocity (V0) was determined from the linear portion of the progress curve.
Substrates and compounds were previously dissolved in DMSO at 10 mM, with the final solvent concentration kept at lower 4% (v/v). V0, relative velocities, KM and IC50 were determined from experimental datas using Mars datas Analysis 2.0 and Kaleidagraph softwares.
Inhibitor binding affinity (dissociation constant, KI) and first-order rate constant (k3) parameters were determined for Caspase-2 and Caspase-3 using the progress curve method. The ratio k3/KI was obtained by fitting the experimental data to the equations (F.U., fluorescence unit): […]
A continuous method of determination of the kinact/KI ratio was used for evaluating the inhibitory activity of the tested compounds against Caspase-2 and Caspase-3.
The reaction mixture is prepared by letting the enzyme and the buffer incubate at 37° C. […]
(§4) The activities of the enzyme are measured between 45 and 60 minutes. […]

Caspase-3 = molecular target: T2, Caspase-3 (Homo sapiens, UniProt P42574); experiment: Caspase-3 inhibition assay (in vitro), kinact/KI by continuous method; assay type: biochemical; settings: human recombinant Caspase-3 0.5 nM, substrate Ac-DEVD-AMC, 37° C.; read-out: Inactivation constant kinact/KI Caspase-3 (converted)
T2 construct: the Caspase-2 and Caspase-3 are human recombinant active enzymes; purchased R&D Systems 707-C3-010/CF
T2 sequence (P42574 29-175 limits assumed): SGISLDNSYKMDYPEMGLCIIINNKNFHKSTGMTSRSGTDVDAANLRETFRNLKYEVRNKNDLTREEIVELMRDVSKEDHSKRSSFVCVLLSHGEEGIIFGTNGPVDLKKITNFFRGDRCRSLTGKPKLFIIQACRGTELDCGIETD
T2 sequence (P42574 176-277 limits assumed): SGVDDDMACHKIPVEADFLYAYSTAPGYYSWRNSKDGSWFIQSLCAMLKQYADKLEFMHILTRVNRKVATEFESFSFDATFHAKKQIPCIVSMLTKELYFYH
Source text: as §1, §2
In this example, the Caspase-2 and Caspase-3 are human recombinant active enzymes that are respectively provided by Enzo Life® (ALX-201-057-U100) and R&D Systems® (707-C3-010/CF). […]
as §3, with “They are fluorogenic due to the presence of their AMC (7-amino-4-methylcoumarin) end group.” left out
The fluorescence values are measured at 37° C. with a spectrofluorometer with a microplate reader BMG FLUOstar OPTIMA. […]
The inhibitory properties of the tested compounds are evaluated by the determination of the kinact/KI ratio regarding either Caspase-2 or Caspase-3 wherein: • kinact is the maximal inactivation rate constant, and • KI is the dissociation constant according to: […]
as §4

HeLa cells = experiment: Protection against cellular death induced by vincristine, propidium iodide flow cytometry; assay type: cell-based, human; settings: compound at 3, 10, 30 and 60 μM added 1 hour before 20 nM vincristine, 48 hours
Method: In this example, the protective effect of the compound 2 of the invention against cellular death induced by vincristine (a vinca alkaloid) is tested using a well-known flow cytometry cell death assay based on propidium iodide staining.
To evaluate the protecting effect of compound 2, a Caspase-dependent cellular model is used.
Human HeLa cells are used in this model. HeLa cells (cervical cancer cell line) were obtained from American Type Cell Collection (ATCC), and were cultured in Dulbecco's Modified Eagle Medium (DMEM, High Glucose, GlutaMAX™, Pyruvate) (Gibco, Life technologies), supplemented with 10% FCS and antibiotics (Gibco, Life technologies).
Human HeLa cells are treated with Vincristine (Sigma Aldrich) solubilized in water at 5 mM. Vincristine works partly by binding to the tubulin protein, stopping the cell from separating its chromosomes during the metaphase; the cell then undergoes apoptosis.
Propidium iodide (PI) (Sigma Aldrich) is used to evaluate plasma membrane permeabilisation, a sign of cell death. […]
The cells are then analyzed by flow cytometry with an excitation of 561 nm.
Fluorescence-Activated Cell Sorting was performed using a FACSCalibur cytometer (Becton Dickinson, San Jose, Calif.). For each sample, data from 5,000 Cells were registered and analyzed with the CellQuest Pro™ software (Becton Dickinson). […]

Compound | efficiency to inhibit Caspase-2 (in words) (Caspase-2; compared with Δ2Me-TRP601) | kinact/KI (Caspase-2) [M⁻¹ s⁻¹] | times more efficient to inactivate Caspase-2 than to inactivate Caspase-3 (selectivity) (Caspase-2) | kinact/KI (Caspase-3) [M⁻¹ s⁻¹] | protection of cells against apoptotic death induced by vincristine (percentage of propidium iodide positive cells) (HeLa cells)
Cc1ccc2c(c1)CCN(C(=O)[C@@H](NC(=O)[C@H](CC(=O)O)NC(=O)[C@@H](NC(=O)c1ccc3ccccc3n1)C(C)C)C(C)C)[C@@H]2C(=O)N[C@@H](CC(=O)O)C(=O)COc1c(F)cccc1F [Compound 2, (S)-3-((S)-2-((S)-2-((S)-3-carboxy-2-((S)-3-methyl-2-(quinoline-2-carboxamido)butanamido)propanamido)-3-methylbutanoyl)-6-methyl-1,2,3,4-tetrahydroisoquinoline-1-carboxamido)-5-(2,6-difluorophenoxy)-4-oxopentanoic acid] | as efficient as Δ2Me-TRP601 to inhibit Caspase-2 | 1.76e+06 | 57 times | 30500 | protects the cells against apoptotic death induced by vincristine in a dose-dependent manner
CC(C)[C@H](NC(=O)c1ccc2ccccc2n1)C(=O)N[C@@H](CC(=O)O)C(=O)N[C@H](C(=O)N[C@@H](C)C(=O)N[C@@H](CC(=O)O)C(=O)COc1c(F)cccc1F)C(C)C [Δ2Me-TRP-601, reference compound] (Quinaldoyl-VDVA-X1) |  | 1.57e+06 | does not exhibit this selectivity | 1.92e+06 | 
